Common to all, as to assay type: in vivo
Assay [1] relates to Amaranthus retoflexus (AMARE). Nature of the assay: Post-emergence herbicidal glasshouse test. Particulars: sprayed after 8 days cultivation, 250 g/ha, evaluated after 13 days, five-point scale. As to the method: (§1) Seeds of a variety of test species are sown in standard soil in pots Amaranthus retoflexus (AMARE), Echinochloa crus-galli (ECHCG), Setaria faberi (SETFA)). After cultivation for one day (pre-emergence) or after 8 days cultivation (post-emergence) under controlled conditions in a glasshouse (at 24/16° C., day/night; 14 hours light; 65% humidity), the plants are sprayed with an aqueous spray solution derived from the formulation of the technical active ingredient in acetone/water (50:50) solution containing 0.5% Tween™ 20 (polyoxyethylene sorbitan monolaurate, CAS RN 9005-64-5). Compounds are applied at 250 g/ha unless otherwise stated. The test plants are then grown in a glasshouse under controlled conditions in a glasshouse (at 24/16° C., day/night; 14 hours light; 65% humidity) and watered twice daily. After 13 days for pre- and post-emergence, the test is evaluated for the percentage damage caused to the plant. The biological activities are shown in the following table on a five-point scale (5=81-100%; 4=61-80%; 3=41-60%; 2=21-40%; 1=0-20%).

The test system of assay [2] is Echinochloa crus-galli (ECHCG). Nature of the assay: Post-emergence herbicidal glasshouse test. Particulars: sprayed after 8 days cultivation, 250 g/ha, evaluated after 13 days, five-point scale. Here is the method: as §1
Assay [3] concerns Setaria faberi (SETFA). Put plainly: Post-emergence herbicidal glasshouse test. To be noted: sprayed after 8 days cultivation, 250 g/ha, evaluated after 13 days, five-point scale. Here is the method:
as §1

Assay [4] concerns Amaranthus retoflexus (AMARE). Put plainly: Pre-emergence herbicidal glasshouse test. Particulars: sprayed after one day cultivation, 250 g/ha, evaluated after 13 days, five-point scale. Here is the method:
as §1

In assay [5] the test system is Echinochloa crus-galli (ECHCG). Put plainly: Pre-emergence herbicidal glasshouse test. Particulars: sprayed after one day cultivation, 250 g/ha, evaluated after 13 days, five-point scale. Here is the method:
as §1

Assay [6] deals with Setaria faberi (SETFA). Put plainly: Pre-emergence herbicidal glasshouse test. Particulars: sprayed after one day cultivation, 250 g/ha, evaluated after 13 days, five-point scale. Here is the method:
as §1

In the case of `FC(F)c1cc(-c2c(Br)cccc2Oc2ncc(Cl)s2)on1` [Compound 1.023], the “percentage damage caused to the plant, AMARE” value in assay [1] and in assay [4] was 5 (5=81-100%) each time. The “percentage damage caused to the plant, ECHCG” value in assay [2] and in assay [5] was 5 (5=81-100%) throughout. For the same molecule, the “percentage damage caused to the plant, SETFA” value in the assay on Setaria faberi (SETFA) [3] and in the assay with Setaria faberi (SETFA) [6] was 5 (5=81-100%) throughout.

For the molecule `FC(F)c1cc(-c2c(Br)cccc2Oc2ncc(Br)s2)on1` [Compound 1.024], the figures for the “percentage damage caused to the plant, AMARE” value in assay [1] and in assay [4] were 5 (5=81-100%) and 4 (4=61-80%), respectively. The “percentage damage caused to the plant, ECHCG” value in assay [2] and in assay [5] was 5 (5=81-100%) in each case. Also, the entries for the “percentage damage caused to the plant, SETFA” value with Setaria faberi (SETFA) [3] and in the assay on Setaria faberi (SETFA) [6] were 5 (5=81-100%) and 4 (4=61-80%), respectively.

Regarding `FC(F)c1cc(-c2c(Cl)cccc2Oc2ncc(Br)s2)on1` [Compound 1.025], the “percentage damage caused to the plant, AMARE” value in assay [1] and in assay [4] was 5 (5=81-100%) throughout. The “percentage damage caused to the plant, ECHCG” value in assay [2] and in assay [5] was 5 (5=81-100%) each time. Besides, the “percentage damage caused to the plant, SETFA” value in the assay with Setaria faberi (SETFA) [3] and with Setaria faberi (SETFA) [6] was 5 (5=81-100%) throughout.

For `FC(F)c1cc(-c2ccccc2Oc2ncc(Cl)s2)on1` [Compound 1.026], the “percentage damage caused to the plant, AMARE” value in assay [1] and in assay [4] was 4 (4=61-80%) each time. Also, the “percentage damage caused to the plant, ECHCG” value in assay [2] and in assay [5] was 4 (4=61-80%) each time. Moreover, the “percentage damage caused to the plant, SETFA” value in the assay on Setaria faberi (SETFA) [3] and with Setaria faberi (SETFA) [6] was 4 (4=61-80%) each time.

With `FC(F)c1cc(-c2c(Br)cccc2Oc2nc(Cl)c(Cl)s2)on1` [Compound 1.028], the “percentage damage caused to the plant, AMARE” value in assay [1] is 4 (4=61-80%); in assay [4], 2 (2=21-40%). For the same molecule, the “percentage damage caused to the plant, ECHCG” value in assay [2] and in assay [5] was 4 (4=61-80%) in each case. Moreover, the “percentage damage caused to the plant, SETFA” value in the assay with Setaria faberi (SETFA) [3] and in the assay on Setaria faberi (SETFA) [6] was 4 (4=61-80%) throughout.

Take `Fc1cccc(Oc2nc(Cl)c(Cl)s2)c1-c1cc(C(F)F)no1` [Compound 1.029]: the “percentage damage caused to the plant, AMARE” value in assay [1] and in assay [4] was 5 (5=81-100%) in each case. In addition, the “percentage damage caused to the plant, ECHCG” value in assay [2] and in assay [5] was 1 (1=0-20%) each time. Further, the “percentage damage caused to the plant, SETFA” value in the assay with Setaria faberi (SETFA) [3] and in the assay with Setaria faberi (SETFA) [6] was 2 (2=21-40%) in each case.

Turning to `FC(F)c1cc(-c2c(Br)cccc2Oc2nc(C(F)F)c(Cl)s2)on1` [Compound 1.030], the “percentage damage caused to the plant, AMARE” value in assay [1] and in assay [4] was 1 (1=0-20%) in each case. Further, the “percentage damage caused to the plant, ECHCG” value in assay [2] and in assay [5] was 1 (1=0-20%) in each case. Further, the “percentage damage caused to the plant, SETFA” value in the assay on Setaria faberi (SETFA) [3] and with Setaria faberi (SETFA) [6] was 1 (1=0-20%) each time.

In the case of `Fc1cccc(Sc2ncc(Cl)s2)c1-c1cc(C(F)F)no1` [Compound 1.031, 5-[2-(5-chlorothiazol-2-yl)sulfanyl-6-fluoro-phenyl]-3-(difluoromethyl)isoxazole], the “percentage damage caused to the plant, AMARE” value in assay [1] is listed as 4 (4=61-80%); in assay [4] it was 3 (3=41-60%). Further, the “percentage damage caused to the plant, ECHCG” value in assay [2] and in assay [5] was 2 (2=21-40%) throughout. In addition, the “percentage damage caused to the plant, SETFA” value in the assay with Setaria faberi (SETFA) [3] is recorded as 3 (3=41-60%); in the assay with Setaria faberi (SETFA) [6], 2 (2=21-40%).

For `FC(F)c1cc(-c2c(Cl)cccc2Oc2nc(Cl)c(Cl)s2)on1` [Compound 1.032], the “percentage damage caused to the plant, AMARE” value in assay [1] and in assay [4] was 5 (5=81-100%) throughout. Besides, the entries for the “percentage damage caused to the plant, ECHCG” value in assay [2] and in assay [5] were 2 (2=21-40%) and 1 (1=0-20%), respectively. The “percentage damage caused to the plant, SETFA” value with Setaria faberi (SETFA) [3] was 4 (4=61-80%); in the assay with Setaria faberi (SETFA) [6], 1 (1=0-20%).

Take `Fc1cccc(Oc2nc(C(F)(F)F)cs2)c1-c1cc(C(F)F)no1` [Compound 1.033]: the “percentage damage caused to the plant, AMARE” value in assay [1] was 4 (4=61-80%); in assay [4], 5 (5=81-100%). The “percentage damage caused to the plant, ECHCG” value in assay [2] and in assay [5] was 4 (4=61-80%) each time. Further, the “percentage damage caused to the plant, SETFA” value in the assay with Setaria faberi (SETFA) [3] is 4 (4=61-80%); with Setaria faberi (SETFA) [6], 5 (5=81-100%).

For the molecule `FC(F)c1cc(-c2c(Br)cccc2Oc2nc(C(F)(F)F)cs2)on1` [Compound 1.034], the “percentage damage caused to the plant, AMARE” value in assay [1] and in assay [4] was 4 (4=61-80%) throughout. For the same molecule, the “percentage damage caused to the plant, ECHCG” value in assay [2] and in assay [5] was 3 (3=41-60%) in each case. The “percentage damage caused to the plant, SETFA” value is recorded as 4 (4=61-80%) in the assay with Setaria faberi (SETFA) [3] and 5 (5=81-100%) in the assay on Setaria faberi (SETFA) [6].

Regarding `Fc1cccc(Oc2nc(C(F)F)c(Cl)s2)c1-c1cc(C(F)F)no1` [Compound 1.035], the “percentage damage caused to the plant, AMARE” value is 2 (2=21-40%) in assay [1] and 1 (1=0-20%) in assay [4]. The “percentage damage caused to the plant, ECHCG” value in assay [2] and in assay [5] was 1 (1=0-20%) in each case. For the same molecule, the “percentage damage caused to the plant, SETFA” value with Setaria faberi (SETFA) [3] and in the assay with Setaria faberi (SETFA) [6] was 1 (1=0-20%) throughout.

These data come from US12662476B2, “Herbicidal thiazole compounds” (SYNGENTA CROP PROTECTION AG, priority 2019, dated 2026).
